Reference: patent US8350079B2, “Treprostinil formulation” (United Therapeutics Corporation, priority 2008, dated 2013)

Key:
[1] = Stability tests of treprostinil forms (dimer formation, room temperature stability); assay type: physicochemical
Experimental: The anhydrous form of treprostinil (TREPROSTINIL) has been previously described, e.g., in J. Org. Chem. 2004, 69, 1890-1902. […] A larger amount of dimers can form at higher temperatures. However, dimer formation is negligible at 5° C. Therefore, anhydrous treprostinil must be refrigerated for storage and transport. In the past, treprostinil had to be refrigerated and shipped with ice packs to maintain low (2° C.-8° C.) temperatures.
The instability of anhydrous treprostinil also imposes challenges to its preparation. To obtain anhydrous treprostinil, wet compound from recrystallization was heated in a vacuum. […] Therefore, heating temperature must be carefully controlled to avoid high heat when drying treprostinil in order to remove all water, otherwise these two dimer impurities will be produced.
Data has been generated to characterize a monohydrate form of treprostinil. […] Treprostinil monohydrate can be stored and shipped with no special handling.

[2] = Stability of anhydrous treprostinil at 25° C. (6-month stability report, lot 01A07002); assay type: physicochemical
Experimental: II. Stability of Anhydrous Form Versus Monohydrate Form of TREPROSTINIL at 25° C.
1. Stability Report (6-month) for anhydrous lot #01A07002
A 3.34-kg sample of treprostinil diethanolamine salt was dissolved in 40 L of sterile water, 60 L of ethyl acetate and 3.2 L of 3 M HCl were added and the mixture stirred. The layers were separated and the aqueous layer was extracted thrice with 20-L portions of ethyl acetate. The four organic layers were combined, the organic solution washed twice with 20-L portions of sterile water, once with 20 L of brine and dried over 2.97 kg of anhydrous sodium sulfate. The mixture was filtered and the filtrate was concentrated to yield treprostinil as a gummy solid. This solid was transferred to glass drying trays and let air-dry for 93 hours. This solid was then dissolved in 23.4 kg of ethanol, warmed to 48° C. and treated with 23.4 kg of warm (40-50° C.) sterile water. The solution was stirred and then stirring was stopped to allow the treprostinil to slowly crystallize. The resulting white solid was collected by filtration in an Aurora filter, washed with 45 L of a cold (6° C.) 20% ethanol in sterile water solution, the filter moved to a Hepa-filtered Finishing Room and the solid dried under house vacuum for 22.3 hours. The solid was transferred to drying trays and further dried in a vacuum oven at 55 deg. C and 0.26 Torr for 22.7 hours to give 2.63 kg (96.3%) of anhydrous treprostinil (Lot #01A07002) as a white solid.

Which Dimer formation ([1]; 5° C.) does the source give for CCCCC[C@H](O)CC[C@@H]1[C@H]2Cc3cccc(OCC(=O)O)c3C[C@H]2C[C@H]1O [Lot No. 01 A07002 (Anhydrous), 2-((1R,2R,3aS,9aS)-2-hydroxy-1-((S)-3-hydroxyoctyl)-2,3,3a,4,9,9a-hexahydro-1H-cyclopenta[b]naphthalen-5-yloxy)acetic acid] here?
The Dimer formation was “negligible”.

And the “Stability (stability tests)” value ([1]; 25° C., dimers formed upon standing)?
The value was “not stable”.

What about the “Dimer formation on heating the solid” value ([1]; solid heated above 50° C. in vacuum drying) of the same compound?
Its value is “two dimers of treprostinil formed”.

And the “HPLC Assay 750W93” value ([2]; 3 months)?
The value was 1.2.

And the “HPLC Assay 751W93” value ([2]; 3 months)?
The value was 0.9.

What about the “HPLC Assay Treprostinil” value ([2]; 3 months) of the same compound?
Its value is 98.1%.

What about the Physical examination ([2]; 3 months) of the same compound?
Its Physical examination is “White powder”.

And the “Water (Karl Fischer)” value ([2]; 3 months)?
Its value is 0.7%.

And the “HPLC Assay 750W93” value ([2]; 6 months)?
The value was 1.5.

And the “HPLC Assay 751W93” value ([2]; 6 months)?
Its value is 1.1.

What about the “HPLC Assay Treprostinil” value ([2]; 6 months) of the same compound?
The value was 95.4%.

What about the Physical examination ([2]; 6 months) of the same compound?
The Physical examination was “White powder”.

And the “Water (Karl Fischer)” value ([2]; 6 months)?
The value was 0.8%.

And the “HPLC Assay 750W93” value ([2]; Initial)?
The value was 0.2.

What about the “HPLC Assay 751W93” value ([2]; Initial) of the same compound?
The value was 0.3.

And the “HPLC Assay Treprostinil” value ([2]; Initial)?
Its value is 99.6%.

What about the Physical examination ([2]; Initial) of the same compound?
The Physical examination was “White powder”.

What about the “Water (Karl Fischer)” value ([2]; Initial) of the same compound?
The value was 0.4%.
